From ChEMBL document CHEMBL6092185, “Discovery of glycosidated glycyrrhetinic acid derivatives: Natural product-based soluble epoxide hydrolase inhibitors” (Eur J Med Chem, 2024)

Columns and labels:
Mus musculus [1] = species: Mus musculus; assay: animal or person; conditions: BALB/c, 6 h, read-out: INH
Description: Anti-inflammatory activity in BALB/c mouse model of Carrageenan-induced paw edema assessed as inhibition of edema at 5 mg/kg, ip measured upto 6 hrs relative to control

[2] = biological target: T1, Bifunctional epoxide hydrolase 2 (Mus musculus, UniProt P34914); assay: Inhibition of C57BL/6J mouse cortex sEH using 14,15-EET as substrate preincubated for 15 mins followed by substrate addition measured after 2 hrs by UPLC-MS/MS analysis
T1 sequence (P34914 whole entry): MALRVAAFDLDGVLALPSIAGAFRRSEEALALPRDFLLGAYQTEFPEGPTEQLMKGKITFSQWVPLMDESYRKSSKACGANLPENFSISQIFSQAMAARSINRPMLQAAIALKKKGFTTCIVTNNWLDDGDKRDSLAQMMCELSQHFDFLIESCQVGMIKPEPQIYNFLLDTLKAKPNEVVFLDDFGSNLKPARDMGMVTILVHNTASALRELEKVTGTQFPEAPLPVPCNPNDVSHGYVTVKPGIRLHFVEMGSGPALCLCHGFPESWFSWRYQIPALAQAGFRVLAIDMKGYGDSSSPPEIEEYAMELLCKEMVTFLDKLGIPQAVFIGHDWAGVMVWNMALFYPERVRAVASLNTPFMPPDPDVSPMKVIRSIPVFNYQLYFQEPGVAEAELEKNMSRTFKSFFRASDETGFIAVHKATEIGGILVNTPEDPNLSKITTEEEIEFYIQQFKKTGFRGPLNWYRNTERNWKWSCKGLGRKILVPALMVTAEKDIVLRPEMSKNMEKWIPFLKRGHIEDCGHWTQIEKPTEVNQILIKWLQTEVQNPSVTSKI

Mus musculus [3] = species: Mus musculus; assay: animal or person; conditions: BALB/c, 4 h, read-out: INH
Mus musculus [4] = species: Mus musculus; assay: animal or person; conditions: BALB/c, 3 h, read-out: INH
Description: Anti-inflammatory activity in BALB/c mouse model of Carrageenan-induced paw edema assessed as inhibition of edema at 5 mg/kg, ip measured after 3 hrs relative to control

Mus musculus [5] = species: Mus musculus; assay: animal or person; conditions: BALB/c, 2 h, read-out: INH
Description: Anti-inflammatory activity in BALB/c mouse model of Carrageenan-induced paw edema assessed as inhibition of edema at 5 mg/kg, ip measured after 2 hrs relative to control

Mus musculus [6] = species: Mus musculus; assay: animal or person; conditions: BALB/c, po, 1 h, read-out: INH
Description: Anti-inflammatory activity in BALB/c mouse model of Carrageenan-induced paw edema assessed as inhibition of edema at 20 mg/kg, IG measured after 1 hr relative to control

[7] = Cytotoxicity against HEK293T cells incubated overnight by CCK8 assay; conditions: human
[8] = Cytotoxicity against human HepG2 cells incubated overnight by CCK8 assay

IC50 [2] [µM] | SMILES | also measured
0.0066 | CC(C)CNC(=O)NC[C@@]1(C)CC[C@]2(C)CC[C@]3(C)C(=CC[C@@H]4[C@@]5(C)CC[C@H](O)C(C)(C)[C@@H]5CC[C@]43C)[C@@H]2C1 | 
0.174 | CCC(=O)N1CCC(CNC(=O)NC[C@@]2(C)CC[C@]3(C)CC[C@]4(C)C(=CC(=O)[C@@H]5[C@@]6(C)CC[C@H](O[C@@H]7O[C@H](CO)[C@@H](O)[C@H](O)[C@@H]7O)C(C)(C)[C@@H]6CC[C@]54C)[C@@H]3C2)CC1 | 
0.446 | CC1(C)[C@@H](O[C@@H]2O[C@H](CO)[C@@H](O)[C@H](O)[C@H]2O)CC[C@]2(C)[C@H]3C(=O)C=C4[C@@H]5C[C@@](C)(CNC(=O)NCC6CCOCC6)CC[C@]5(C)CC[C@@]4(C)[C@]3(C)CC[C@@H]12 | 
0.45 | CC1(C)[C@@H](O[C@H]2OC[C@@H](O)[C@H](O)[C@H]2O)CC[C@]2(C)[C@H]3C(=O)C=C4[C@H]5C[C@@](C)(CNC(=O)NCC6CCOCC6)CC[C@]5(C)CC[C@@]4(C)[C@]3(C)CC[C@@H]12 | 
2.27 | CC1(C)[C@@H](O[C@H]2O[C@H](CO)[C@@H](O)[C@H](O)[C@H]2O)CC[C@]2(C)[C@H]3C(=O)C=C4[C@@H]5C[C@@](C)(CNC(=O)NCC6CCC(OC(F)(F)F)CC6)CC[C@]5(C)CC[C@@]4(C)[C@]3(C)CC[C@@H]12 (stereo partly drawn) | 
0.0189 | CC1(C)C(=O)CC[C@]2(C)[C@H]3C(=O)C=C4[C@@H]5C[C@@](C)(CNC(=O)NCC6CCOCC6)CC[C@]5(C)CC[C@@]4(C)[C@]3(C)CC[C@@H]12 | 
0.435 | CC1(C)[C@@H](O[C@@H]2OC[C@@H](O)[C@H](O)[C@H]2O)CC[C@]2(C)[C@H]3C(=O)C=C4[C@H]5C[C@@](C)(CNC(=O)NCC6CCOCC6)CC[C@]5(C)CC[C@@]4(C)[C@]3(C)CC[C@@H]12 | 
0.31 | CC1(C)[C@@H](O[C@H]2O[C@H](CO)[C@H](O)[C@H](O)[C@H]2O)CC[C@]2(C)[C@H]3C(=O)C=C4[C@H]5C[C@@](C)(CNC(=O)NCC6CCOCC6)CC[C@]5(C)CC[C@@]4(C)[C@]3(C)CC[C@@H]12 | 
0.0077 | CC1(C)[C@@H](O)CC[C@]2(C)[C@H]3C(=O)C=C4[C@@H]5C[C@@](C)(CNC(=O)NCC6CCOCC6)CC[C@]5(C)CC[C@@]4(C)[C@]3(C)CC[C@@H]12 | inhibition in vivo at 20 mg/kg (Mus musculus [3]): 27.2%
0.0205 | CC(C)CNC(=O)NC[C@@]1(C)CC[C@]2(C)CC[C@]3(C)C(=CC(=O)[C@@H]4[C@@]5(C)CC[C@H](O)C(C)(C)[C@@H]5CC[C@]43C)[C@@H]2C1 | 
0.542 | CC1(C)[C@@H](O[C@@H]2O[C@H](CO)[C@H](O)[C@H](O)[C@H]2O)CC[C@]2(C)[C@H]3C(=O)C=C4[C@H]5C[C@@](C)(CNC(=O)NCC6CCOCC6)CC[C@]5(C)CC[C@@]4(C)[C@]3(C)CC[C@@H]12 | 
0.301 | CC1(C)[C@@H](O[C@@H]2O[C@H](CO)[C@@H](O)[C@H](O)[C@H]2O)CC[C@]2(C)[C@H]3C(=O)C=C4[C@H]5C[C@@](C)(CNC(=O)NCC6CCOCC6)CC[C@]5(C)CC[C@@]4(C)[C@]3(C)CC[C@@H]12 | inhibition in vivo at 5 mg/kg (Mus musculus [4]): 42.4%; inhibition in vivo at 5 mg/kg (Mus musculus [5]): 43.2%
0.182 | CCC(=O)N1CCC(CNC(=O)NC[C@@]2(C)CC[C@]3(C)CC[C@]4(C)C(=CC(=O)[C@@H]5[C@@]6(C)CC[C@H](O[C@H]7O[C@H](CO)[C@@H](O)[C@H](O)[C@@H]7O)C(C)(C)[C@@H]6CC[C@]54C)[C@@H]3C2)CC1 | inhibition in vivo at 20 mg/kg (Mus musculus [6]): 38.4%
0.0134 | CC(C)CNC(=O)NC[C@@]1(C)CC[C@]2(C)CC[C@]3(C)C(=CC(=O)[C@@H]4[C@@]5(C)CC[C@H](O)C(C)(C)[C@@H]5CC[C@]43C)[C@H]2C1 | 
3.72 | CC1(C)[C@@H](O[C@@H]2O[C@H](CO)[C@@H](O)[C@H](O)[C@H]2O)CC[C@]2(C)[C@H]3C(=O)C=C4[C@H]5C[C@@](C)(CNC(=O)NCc6ccc(OC(F)(F)F)cc6)CC[C@]5(C)CC[C@@]4(C)[C@]3(C)CC[C@@H]12 | 
0.0159 | CC1(C)[C@@H](O)CC[C@]2(C)[C@H]3C(=O)C=C4[C@@H]5C[C@@](C)(CNC(=O)NCc6ccc(S(C)(=O)=O)cc6)CC[C@]5(C)CC[C@@]4(C)[C@]3(C)CC[C@@H]12 | 
0.0052 | CC1(C)[C@@H](O)CC[C@]2(C)[C@H]3C(=O)C=C4[C@H]5C[C@@](C)(CNC(=O)NCC6CCOCC6)CC[C@]5(C)CC[C@@]4(C)[C@]3(C)CC[C@@H]12 | IC50 [7]: > 50 µM; inhibition in vivo at 20 mg/kg (Mus musculus [3]): 28.4%; IC50 [8]: > 50 µM
0.0056 | CCC(=O)N1CCC(CNC(=O)NC[C@@]2(C)CC[C@]3(C)CC[C@]4(C)C(=CC(=O)[C@@H]5[C@@]6(C)CC[C@H](O)C(C)(C)[C@@H]6CC[C@]54C)[C@@H]3C2)CC1 | 
0.0097 | CC1(C)[C@@H](O)CC[C@]2(C)[C@H]3C(=O)C=C4[C@H]5C[C@@](C)(CNC(=O)NCc6ccc(S(C)(=O)=O)cc6)CC[C@]5(C)CC[C@@]4(C)[C@]3(C)CC[C@@H]12 | 

Continued, molecule first:

SMILES | IC50 [2] [µM] | also measured
CC[C@H](C)C(=O)N1CCC(NC(=O)Nc2ccc(OC(F)(F)F)c(F)c2)CC1 |  | inhibition in vivo at 5 mg/kg (Mus musculus [1]): 39.2%
CCC(=O)N1CCC(CNC(=O)NC[C@@]2(C)CC[C@]3(C)CC[C@]4(C)C(=CC(=O)[C@@H]5[C@@]6(C)CC[C@H](O[C@H]7O[C@H](CO)[C@@H](O)[C@H](O)[C@@H]7O)C(C)(C)[C@@H]6CC[C@]54C)[C@H]3C2)CC1 | 0.151 | 
CCC(=O)N1CCC(CNC(=O)NC[C@@]2(C)CC[C@]3(C)CC[C@]4(C)C(=CC(=O)[C@@H]5[C@@]6(C)CC[C@H](O)C(C)(C)[C@@H]6CC[C@]54C)[C@H]3C2)CC1 | 0.0099 | 
CC1(C)[C@@H](O)CC[C@]2(C)[C@H]3C(=O)C=C4[C@@H]5C[C@@](C)(CNC(=O)NCc6ccc(OC(F)(F)F)cc6)CC[C@]5(C)CC[C@@]4(C)[C@]3(C)CC[C@@H]12 | 0.0086 | 
CC1(C)[C@@H](O[C@H]2O[C@H](CO)[C@@H](O)[C@H](O)[C@H]2O)CC[C@]2(C)[C@H]3C(=O)C=C4[C@H]5C[C@@](C)(CNC(=O)NCC6CCOCC6)CC[C@]5(C)CC[C@@]4(C)[C@]3(C)CC[C@@H]12 | 0.442 | inhibition in vivo at 5 mg/kg (Mus musculus [1]): 40.3%
CC1(C)[C@@H](O)CC[C@]2(C)[C@H]3C(=O)C=C4[C@H]5C[C@@](C)(CNC(=O)NCc6ccc(S(N)(=O)=O)cc6)CC[C@]5(C)CC[C@@]4(C)[C@]3(C)CC[C@@H]12 | 0.013 | 
CC1(C)C(=O)CC[C@]2(C)[C@H]3C(=O)C=C4[C@H]5C[C@@](C)(CNC(=O)NCC6CCOCC6)CC[C@]5(C)CC[C@@]4(C)[C@]3(C)CC[C@@H]12 | 0.0134 | 
CC1(C)[C@@H](O)CC[C@]2(C)[C@H]3C(=O)C=C4[C@H]5C[C@@](C)(CNC(=O)NCc6ccc(OC(F)(F)F)cc6)CC[C@]5(C)CC[C@@]4(C)[C@]3(C)CC[C@@H]12 | 0.0169 | 
CC1(C)[C@@H](O[C@H]2O[C@H](CO)[C@@H](O)[C@H](O)[C@H]2O)CC[C@]2(C)[C@H]3C(=O)C=C4[C@@H]5C[C@@](C)(CNC(=O)NCC6CCOCC6)CC[C@]5(C)CC[C@@]4(C)[C@]3(C)CC[C@@H]12 | 0.387 | 
CC1(C)[C@@H](O)CC[C@]2(C)[C@H]3CC=C4[C@@H]5C[C@@](C)(CNC(=O)NCC6CCOCC6)CC[C@]5(C)CC[C@@]4(C)[C@]3(C)CC[C@@H]12 | 0.0103 | 
CC1(C)[C@@H](O[C@@H]2O[C@H](CO)[C@@H](O)[C@H](O)[C@@H]2O)CC[C@]2(C)[C@H]3C(=O)C=C4[C@H]5C[C@@](C)(CNC(=O)NCC6CCOCC6)CC[C@]5(C)CC[C@@]4(C)[C@]3(C)CC[C@@H]12 | 0.16 | 
CC1(C)[C@@H](O[C@@H]2O[C@H](CO)[C@@H](O)[C@H](O)[C@H]2O)CC[C@]2(C)[C@H]3C(=O)C=C4[C@@H]5C[C@@](C)(CNC(=O)NCC6CCC(OC(F)(F)F)CC6)CC[C@]5(C)CC[C@@]4(C)[C@]3(C)CC[C@@H]12 (stereo partly drawn) | 2.12 | 
CC1(C)[C@@H](O[C@H]2O[C@H](CO)[C@@H](O)[C@H](O)[C@H]2O)CC[C@]2(C)[C@H]3C(=O)C=C4[C@H]5C[C@@](C)(CNC(=O)NCc6ccc(OC(F)(F)F)cc6)CC[C@]5(C)CC[C@@]4(C)[C@]3(C)CC[C@@H]12 | 5.63 | 
CCC(=O)N1CCC(CNC(=O)NC[C@@]2(C)CC[C@]3(C)CC[C@]4(C)C(=CC(=O)[C@@H]5[C@@]6(C)CC[C@H](O[C@@H]7O[C@H](CO)[C@@H](O)[C@H](O)[C@@H]7O)C(C)(C)[C@@H]6CC[C@]54C)[C@H]3C2)CC1 | 0.152 | 
CC1(C)[C@@H](O)CC[C@]2(C)[C@H]3C(=O)C=C4[C@@H]5C[C@@](C)(CNC(=O)NCc6ccc(S(N)(=O)=O)cc6)CC[C@]5(C)CC[C@@]4(C)[C@]3(C)CC[C@@H]12 | 0.0198 | 
CC1(C)[C@@H](O[C@@H]2OC[C@@H](O)[C@@H](O)[C@@H]2O)CC[C@]2(C)[C@H]3C(=O)C=C4[C@H]5C[C@@](C)(CNC(=O)NCC6CCOCC6)CC[C@]5(C)CC[C@@]4(C)[C@]3(C)CC[C@@H]12 | 0.114 | 
